What is called Kp is tissue or fluid exposure divided by exposure in the circulation. What is called AUC(0-inf) is total exposure, with the tail of the curve extrapolated. A lower AUC(0-inf) goes with low exposure.

Series [1] can be described thus: Brain homogenate binding by rapid equilibrium dialysis, rat brain. The class given is in vitro ADME. The settings on record: pH 7.4, 37 °C, dilution factor 5, read-out: Unbound (Fu, %). The protocol:
Plasma protein binding and brain homogenate binding for study compounds in mouse, dog, and rat by rapid equilibrium dialysis
In practice, unbound fractions in plasma and brain tissue were assessed using rapid equilibrium dialysis in vitro. Separately a pharmacokinetic study was run in vivo whereby a dose of the compound of interest was given at T=0 hours and at subsequent timepoints (eg 0.5, 1 and 4 hours) plasma and separately brain samples were analysed for total concentration of the compound of interest. These total concentrations could then be adjusted with the unbound fraction to give the unbound concentrations in the plasma and brain.
The test compounds were incubated in plasma and brain homogenate from the relevant species at 37 °C in RED device with inserts (8K MWCO, Thermo scientific) for 4 hours at 5 µM in triplicates. 350 µL of 150 mM phosphate buffered saline (PBS, pH 7.4) was used as the receiver side solutions. […] After 10-minute centrifugation at 13 200 rpm, the sample supernatants were analysed with an LC-MS/MS, to obtain the unbound fraction of the test compound (Fub). The unbound fraction was calculated from the peak area ratios obtained for each matrix: Fub = CPBS /Cplasma; [formula] where CPBS and Cplasma are the analyte concentrations in PBS (receiver) and plasma (donor), respectively. […]

Series [2] in a line: Blood-brain-barrier permeability in mice after IV administration. The settings on record: male, CD1 (ICR), mouse, intravenous, 3 mg/kg.
Description: The compound is administered to the animal in a suitable vehicle at T=0 hours. At 0.5 hours post administration plasma and separately brain are removed, prepared and analysed for total compound concentration.
Temperature: 45 °C Injection Volume: 1.5 µl for brain, 4 µl for plasma Ion Source: ESI+, SRM detection
The unbound partition coefficient (Kpuu) was determined as a ratio between the free compound concentrations in plasma and brain: Kpuu = (Cub,brain)/(Cub,plasma) [formula]
Where Cu,brain = unbound concentration in brain (C × Fub, brain); wherein • C = concentration at steady state; and • Cub,plasma = unbound concentration in plasma (C × Fub).
A short description of series [3]: Kpuu determination in the dog (plasma and CSF time course after oral capsule). The format is in vivo, male beagle dog. The protocol:
Example 3 was loaded as a solid, Batch No. C2210502, into enteric coated capsule (0#). Fasted male beagle dog was dosed with pentagastrin (0.25 mg/mL and 0.024 mL/kg) at 6 µg/kg by intramuscular (IM) injection at approximately 30 minutes prior to administration of test compound. Capsule containing 20 mg/kg of Example 3 were administered orally and plasma and CSF samples were taken pre-dose, 0.5, 1, 2, 4, 8 12 and 24 hours post dosing and analysed for concentration of Example 3 in analogous fashion to the study above.
Kpuu = AUC0−infcsf/(AUC0−infplasma×(%Fuplasma/100)) [formula] Kpuu = 6414/(23816×(55,5/100)) = 6414/13218 = 0.49 [formula]

[4] abbreviates: male, beagle, CSF, 20 mg/kg oral capsule, read-out: CSF concentration.
The mark [5] stands for this setting: male, beagle, plasma, 20 mg/kg oral capsule, read-out: Plasma concentration.

Where two headings read alike, the source gives them in different places.

With `CC(C)(C)CC[C@H](NCc1ccc2c(c1)COCC2)C(=O)O` [Example 3, (S)-2-((isochroman-7-ylmethyl)amino)-5,5-dimethylhexanoic acid], in series [1], the fraction unbound at 4 h, 5 µM was 0.371. In addition, the concentration at 0.5 h in series [2] (brain) came to 61.2 ng/g; in series [2] (plasma), 292 ng/mL. The molecule also gave a partition ratio (Kp) at 0.5 h in series [2] (brain/plasma) of 0.21. The CSF concentration result is recorded as “BQL” in series [3] (20 mg/kg oral capsule, 0,5 h); “BQL” in series [3] (20 mg/kg oral capsule, 1 h); 13,7 ng/mL in series [3] (20 mg/kg oral capsule, 2 h); 27,7 ng/mL in series [3] (20 mg/kg oral capsule, 24 h). The Plasma concentration is 1,04 ng/mL in series [3] (20 mg/kg oral capsule, 0,5 h); 3,20 ng/mL in series [3] (20 mg/kg oral capsule, 1 h); 87,1 ng/mL in series [3] (20 mg/kg oral capsule, 24 h). Besides, the AUC(0-inf) in series [3] (male, beagle, CSF, 20 mg/kg oral capsule) came to 6410 ng·h/mL; in series [3] (male, beagle, Plasma, 20 mg/kg oral capsule), 23800 ng·h/mL. For the same molecule, the concentration at 4 h in series [3] (setting [4]) turned out to be 745 ng/mL; in series [3] (setting [5]), 5350 ng/mL. Also, the concentration at 8 h in series [3] (setting [4]) is 698 ng/mL; in series [3] (setting [5]), 1400 ng/mL. Besides, the concentration at 12 h in series [3] (setting [4]) was found to be 196 ng/mL; in series [3] (setting [5]), 390 ng/mL. The same molecule displayed a concentration at 2 h in series [3] (male, beagle, plasma, 20 mg/kg oral capsule, 2 h) of 370 ng/mL.

The record behind these values is patent EP4342530A1, “SORTILIN MODULATORS” (Insusense ApS, priority 2022, dated 2024).
